Data reported in the supplement of paper PMC5908809.

How the values were obtained:
NK-92 (IL-2 2.5 ng/mL) [1] = test: drug sensitivity score (DSS) (DSS units); higher = more sensitive; extreme values may be limits of the assay; conditions: 72 h
[2] = system: normal primary NK cells, pool 1 (3 donors) (IL-2 2.5 ng/mL); test: as above; conditions: 72 h
[3] = system: normal primary NK cells, pool 3 (3 donors) (IL-2 2.5 ng/mL); test: as above; conditions: 72 h
IMC-1 (IL-2 20 ng/mL) [4] = test: as above; conditions: 72 h
[5] = system: normal primary NK cells, pool 2 (3 donors) (IL-2 2.5 ng/mL); test: as above; conditions: 72 h
NKL (IL-2 2.5 ng/mL) [6] = test: as above; conditions: 72 h
KAI3 (IL-2 2.5 ng/mL) [7] = test: as above; conditions: 72 h
[8] = system: normal primary NK cells, pool 1 (3 donors), resting (IL-2 0 ng/mL); test: as above; conditions: 72 h
SNK-6 (IL-2 2.5 ng/mL) [9] = test: as above; conditions: 72 h
DERL-7 (IL-2 2.5 ng/mL) [10] = test: as above; conditions: 72 h
YT (IL-2 2.5 ng/mL) [11] = test: as above; conditions: 72 h
NK-YS (IL-2 2.5 ng/mL) [12] = test: as above; conditions: 72 h
KHYG-1 (IL-2 2.5 ng/mL) [13] = test: as above; conditions: 72 h
NK-92 (IL-2 2.5 ng/mL) [14] = test: percent inhibition of viability; higher = more inhibition; conditions: 72 h
[15] = system: normal primary NK cells, pool 1 (3 donors) (IL-2 2.5 ng/mL); test: as above; conditions: 72 h
[16] = system: normal primary NK cells, pool 3 (3 donors) (IL-2 2.5 ng/mL); test: as above; conditions: 72 h
IMC-1 (IL-2 20 ng/mL) [17] = test: as above; conditions: 72 h
[18] = system: normal primary NK cells, pool 2 (3 donors) (IL-2 2.5 ng/mL); test: as above; conditions: 72 h
NKL (IL-2 2.5 ng/mL) [19] = test: as above; conditions: 72 h
KAI3 (IL-2 2.5 ng/mL) [20] = test: as above; conditions: 72 h
[21] = system: normal primary NK cells, pool 1 (3 donors), resting (IL-2 0 ng/mL); test: as above; conditions: 72 h
SNK-6 (IL-2 2.5 ng/mL) [22] = test: as above; conditions: 72 h
DERL-7 (IL-2 2.5 ng/mL) [23] = test: as above; conditions: 72 h
YT (IL-2 2.5 ng/mL) [24] = test: as above; conditions: 72 h
NK-YS (IL-2 2.5 ng/mL) [25] = test: as above; conditions: 72 h
KHYG-1 (IL-2 2.5 ng/mL) [26] = test: as above; conditions: 72 h
[27] = system: normal NK cells expanded with K562-aAPC; test: as above; conditions: 72 h, IL-2 2.5 ng/mL
Protocol: (§1)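 Drug sensitivity and resistance testing on K562-aAPC-expanded normal NK cells: 5 concentrations (10-fold steps over a 10,000-fold range), 72 h at 37 °C, viability by CellTiter-Glo normalised to DMSO and benzethonium chloride controls; DSS from the fitted curve.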

[28] = system: normal NK cells expanded with K562-aAPC; test: drug sensitivity score (DSS) (DSS units); higher = more sensitive; extreme values may be limits of the assay; conditions: 72 h; IL-2 2.5 ng/mL
Protocol: as §1

CC(C)CC(=O)Nc1n[nH]c2c1CN(C(=O)C1CCN(C)CC1)C2(C)C (max concentration tested 10000 nM)
Conditions | drug sensitivity score
DERL-7 (IL-2 2.5 ng/mL) [10] | 13.1
IMC-1 (IL-2 20 ng/mL) [4] | 21
KAI3 (IL-2 2.5 ng/mL) [7] | 9.47
KHYG-1 (IL-2 2.5 ng/mL) [13] | 16.4
NK-92 (IL-2 2.5 ng/mL) [1] | 5.51
NK-YS (IL-2 2.5 ng/mL) [12] | 14.8
NKL (IL-2 2.5 ng/mL) [6] | 9.5
SNK-6 (IL-2 2.5 ng/mL) [9] | 6.8
YT (IL-2 2.5 ng/mL) [11] | 10.6
[2] | 5.49
[3] | 3.98
[5] | 7.11
[8] | 3.02
[28] | 7.91

percent inhibition of viability [%]
Conditions | 1 nM | 10 nM | 100 nM | 1000 nM | 10000 nM
DERL-7 (IL-2 2.5 ng/mL) [23] | -3.18 | -3.13 | 19.6 | 55.2 | 100
IMC-1 (IL-2 20 ng/mL) [17] | 3.15 | 9.36 | 18 | 101 | 101
KAI3 (IL-2 2.5 ng/mL) [20] | 0.22 | 5.67 | 10.2 | 34.4 | 97.8
KHYG-1 (IL-2 2.5 ng/mL) [26] | 3.79 | 5.48 | 13.2 | 79.1 | 104
NK-92 (IL-2 2.5 ng/mL) [14] | -3.46 | 8.8 | 18 | 15.4 | 52.1
NK-YS (IL-2 2.5 ng/mL) [25] | -0.22 | 5.26 | 25.9 | 59.1 | 103
NKL (IL-2 2.5 ng/mL) [19] | 9.47 | 12.1 | 8.64 | 26 | 105
SNK-6 (IL-2 2.5 ng/mL) [22] | 1.24 | 13.9 | 17.6 | 21.7 | 77.7
YT (IL-2 2.5 ng/mL) [24] | 4.62 | 5.8 | 7.48 | 37.5 | 104
[15] | 5.81 | -11.3 | 1.49 | 2.13 | 93.6
[16] | -6.64 | -10.6 | 9.27 | 6.31 | 54.5
[18] | -7.33 | 3.3 | 10.1 | 14.3 | 85.4
[21] | -13.4 | -45.2 | -20.7 | -66.9 | 85
[27] | 1.26 | -0.23 | 9.16 | 24.6 | 84.3

CCc1cc(Nc2nccc(-c3c(-c4ccc(OC)c(C(=O)Nc5c(F)cccc5F)c4)nc4ccccn34)n2)c(OC)cc1N1CCC(N2CCN(S(C)(=O)=O)CC2)CC1 (max concentration tested 10000 nM)
Conditions | drug sensitivity score
DERL-7 (IL-2 2.5 ng/mL) [10] | 0
IMC-1 (IL-2 20 ng/mL) [4] | 0
KAI3 (IL-2 2.5 ng/mL) [7] | 0
KHYG-1 (IL-2 2.5 ng/mL) [13] | 0
NK-92 (IL-2 2.5 ng/mL) [1] | 1.41
NK-YS (IL-2 2.5 ng/mL) [12] | 0
NKL (IL-2 2.5 ng/mL) [6] | 0
SNK-6 (IL-2 2.5 ng/mL) [9] | 0
YT (IL-2 2.5 ng/mL) [11] | 0
[2] | 0
[3] | 0
[5] | 0
[8] | 0
[28] | 0

percent inhibition of viability [%]
Conditions | 1 nM | 10 nM | 100 nM | 1000 nM | 10000 nM
DERL-7 (IL-2 2.5 ng/mL) [23] | -3.29 | 4.96 | -4.2 | 9.43 | 2.99
IMC-1 (IL-2 20 ng/mL) [17] | -4.74 | -7.3 | -8.28 | -4.78 | -4.76
KAI3 (IL-2 2.5 ng/mL) [20] | 12.8 | 4.45 | 3.16 | -0.26 | -1.06
KHYG-1 (IL-2 2.5 ng/mL) [26] | -1.04 | -3.94 | -1.22 | -2.02 | -0.15
NK-92 (IL-2 2.5 ng/mL) [14] | -8.65 | -15.5 | 0.66 | 9.19 | 19.7
NK-YS (IL-2 2.5 ng/mL) [25] | -1.69 | -4.53 | 2.55 | 3.02 | 7.23
NKL (IL-2 2.5 ng/mL) [19] | -12.8 | -7.57 | -8.59 | -4.55 | -4.74
SNK-6 (IL-2 2.5 ng/mL) [22] | -2.73 | -8.81 | -9.86 | -16 | -27.5
YT (IL-2 2.5 ng/mL) [24] | 2.55 | -0.94 | 2.88 | -1.24 | 0.54
[15] | -5.95 | -3.54 | 3.36 | -0.74 | -0.37
[16] | 1.45 | 1.94 | -1.25 | -1.57 | -1.55
[18] | -9.34 | 1.62 | -10.3 | -0.25 | -11.9
[21] | -6.68 | -7.72 | 5.14 | 4.15 | 11.5
[27] | -0.94 | -0.53 | -2.18 | 1.87 | 0.97
